Assay results from US20200002323A1, “COMPOUNDS” (GLAXOSMITHKLINE INTELLECTUAL PROPERTY DEVELOPMENT LIMITED, priority 2017, published 2020).

Target: T1, recombinant full length LRRK2 protein over-expressed in SH-SY5Y cells (Homo sapiens, UniProt Q5S007)
T1 construct: engineered to over-express recombinant full length LRRK2 protein; host or cells: SH-SY5Y human neuroblastoma cells transduced with BacMam LRRK2 virus
Assay: Recombinant cellular LRRK2 AlphaScreen assay (LRRK2 Ser935 phosphorylation)
Format: cell-based
Details: human neuroblastoma SH-SY5Y cells over-expressing recombinant full length LRRK2, 60 minutes compound incubation, read-out: pIC50 in the recombinant cellular LRRK2 AlphaScreen assay (converted)
Description: b. Recombinant Cellular LRRK2 AlphaScreen Assay
To determine the activity of compounds against LRRK2 kinase activity in cells, the observed LRRK2 kinase-dependent modulation of LRRK2 Ser 935 phosphorylation (Dzamko et al., 2010, Biochem. J. 430: 405-413) was utilized to develop a quantitative 384 well plate-based immunoassay of LRRK2 Ser935 phosphorylation in the human neuroblastoma cell line SH-SY5Y, engineered to over-express recombinant full length LRRK2 protein.
A BacMam virus expressing full length recombinant LRRK2 was purchased from Invitrogen and amplified by inoculation of SF-9 cells at MOI 0.3 for 4-5 days in Sf-900 III SFM medium supplemented with 3% fetal bovine serum. Infected cell cultures were then centrifuged at 2000 g for 20 minutes, viral supernatant titer determined by anti-gp64 plaque assay and stored at 4° C.
Affinity-purified anti-phospho LRRK2 Ser935 sheep polyclonal antibody (Dzamko et al., 2010, Biochem. J. 430: 405-413) was biotinylated by standard methods (PerkinElmer). Anti-LRRK2 rabbit polyclonal antibody was purchased from Novus Biologicals. AlphaScreen Protein A IgG Kit (including acceptor and donor beads) was purchased from Perkin Elmer. […]
Serial dilutions of test compounds were prepared in Opti-MEM reduced serum media (Invitrogen) and 5.6 ul transferred from compound plate to cell assay plate to achieve a top final assay concentration of 10 uM. […] 10 ul of antibody/acceptor bead mix [(1/1000 biotinylated-pS935 LRRK2 antibody, 1/1000 total-LRRK2 antibody, 1/100 Acceptor beads in AlphaScreen detection buffer (25 mM Hepes (pH 7.4), 0.5% Triton X-100, 1 mg/ml Dextran 500 and 0.1% BSA)] was then added to each well and plates incubated for 2 hours at ambient temperature in the dark. 10 μl of donor beads solution (1/33.3 donor beads in AlphaScreen detection buffer) was then added to each well. Following incubation for a further 2 hours at ambient temperature in the dark, plates were read on an EnVision™ plate reader at emission 520-620 nm with excitation 680 nm. […]

T1 sequence (Q5S007 whole entry): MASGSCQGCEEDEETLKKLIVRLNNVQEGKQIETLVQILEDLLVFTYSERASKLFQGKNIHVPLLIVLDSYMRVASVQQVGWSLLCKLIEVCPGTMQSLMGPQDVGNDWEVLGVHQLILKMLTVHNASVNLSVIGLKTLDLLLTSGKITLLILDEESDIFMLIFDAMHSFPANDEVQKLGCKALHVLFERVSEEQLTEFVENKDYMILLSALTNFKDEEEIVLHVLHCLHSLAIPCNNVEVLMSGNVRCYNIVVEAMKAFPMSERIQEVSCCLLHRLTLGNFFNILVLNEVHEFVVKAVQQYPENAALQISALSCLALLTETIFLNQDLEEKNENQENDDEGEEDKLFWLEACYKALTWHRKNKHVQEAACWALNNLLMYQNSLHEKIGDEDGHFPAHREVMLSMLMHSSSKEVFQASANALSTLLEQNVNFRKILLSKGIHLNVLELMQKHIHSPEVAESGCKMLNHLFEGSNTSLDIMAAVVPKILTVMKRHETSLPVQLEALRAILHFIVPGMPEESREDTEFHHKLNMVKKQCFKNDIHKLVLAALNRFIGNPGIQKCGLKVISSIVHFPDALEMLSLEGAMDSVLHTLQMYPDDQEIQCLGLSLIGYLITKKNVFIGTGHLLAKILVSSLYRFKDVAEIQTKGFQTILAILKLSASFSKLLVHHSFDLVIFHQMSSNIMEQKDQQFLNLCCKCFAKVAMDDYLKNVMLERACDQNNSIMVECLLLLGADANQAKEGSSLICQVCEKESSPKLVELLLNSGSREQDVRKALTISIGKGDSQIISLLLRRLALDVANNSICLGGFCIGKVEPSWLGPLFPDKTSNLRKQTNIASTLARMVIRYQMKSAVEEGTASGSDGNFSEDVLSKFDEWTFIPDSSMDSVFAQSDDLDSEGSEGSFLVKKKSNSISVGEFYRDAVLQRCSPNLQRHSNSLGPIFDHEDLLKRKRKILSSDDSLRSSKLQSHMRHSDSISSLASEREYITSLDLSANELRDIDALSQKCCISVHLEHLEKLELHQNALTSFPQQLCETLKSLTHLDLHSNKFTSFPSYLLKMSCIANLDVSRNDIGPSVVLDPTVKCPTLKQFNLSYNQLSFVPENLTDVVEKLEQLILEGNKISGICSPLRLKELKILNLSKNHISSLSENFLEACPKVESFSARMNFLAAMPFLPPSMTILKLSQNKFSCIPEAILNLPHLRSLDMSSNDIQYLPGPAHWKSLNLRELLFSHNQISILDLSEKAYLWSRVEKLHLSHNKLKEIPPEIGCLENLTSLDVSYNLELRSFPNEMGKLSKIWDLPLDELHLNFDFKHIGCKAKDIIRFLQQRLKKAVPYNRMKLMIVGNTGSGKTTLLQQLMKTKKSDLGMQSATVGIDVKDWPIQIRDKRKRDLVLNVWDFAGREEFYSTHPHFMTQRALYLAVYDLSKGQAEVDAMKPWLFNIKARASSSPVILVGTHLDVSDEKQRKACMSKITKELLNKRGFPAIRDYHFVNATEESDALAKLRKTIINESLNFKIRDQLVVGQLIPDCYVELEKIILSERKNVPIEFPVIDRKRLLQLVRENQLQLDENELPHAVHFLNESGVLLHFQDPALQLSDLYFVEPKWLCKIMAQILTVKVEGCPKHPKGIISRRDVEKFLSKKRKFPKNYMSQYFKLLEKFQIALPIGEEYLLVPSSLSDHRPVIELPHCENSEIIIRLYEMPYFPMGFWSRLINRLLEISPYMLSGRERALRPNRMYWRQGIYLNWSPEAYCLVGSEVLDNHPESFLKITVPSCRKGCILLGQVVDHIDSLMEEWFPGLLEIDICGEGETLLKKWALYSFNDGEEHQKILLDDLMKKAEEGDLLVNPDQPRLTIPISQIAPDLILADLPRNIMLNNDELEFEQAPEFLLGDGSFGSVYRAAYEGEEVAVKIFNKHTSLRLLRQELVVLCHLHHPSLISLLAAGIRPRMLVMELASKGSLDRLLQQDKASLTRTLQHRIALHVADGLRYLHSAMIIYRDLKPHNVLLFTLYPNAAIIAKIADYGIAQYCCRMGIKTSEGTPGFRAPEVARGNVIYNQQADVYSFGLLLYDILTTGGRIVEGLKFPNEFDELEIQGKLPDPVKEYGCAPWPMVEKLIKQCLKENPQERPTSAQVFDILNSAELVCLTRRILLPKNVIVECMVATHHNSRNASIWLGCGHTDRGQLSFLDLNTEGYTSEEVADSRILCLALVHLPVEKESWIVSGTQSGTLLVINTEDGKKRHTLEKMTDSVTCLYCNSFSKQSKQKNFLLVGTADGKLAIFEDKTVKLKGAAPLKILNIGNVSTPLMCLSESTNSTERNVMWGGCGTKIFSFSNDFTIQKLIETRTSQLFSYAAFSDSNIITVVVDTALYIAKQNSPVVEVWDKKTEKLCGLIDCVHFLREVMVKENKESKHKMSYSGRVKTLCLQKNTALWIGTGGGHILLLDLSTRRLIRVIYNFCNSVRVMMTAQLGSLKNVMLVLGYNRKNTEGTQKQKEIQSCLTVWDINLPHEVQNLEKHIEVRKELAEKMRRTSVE

SMILES	IC50 [nM]
COc1nc(N2CC(O)C2)cc(-n2ncc3cc(C)c(C4CCN(CCS(C)(=O)=O)CC4)cc32)n1 [Example E42, 1-(2-methoxy-6-(5-methyl-6-(1-(2-(methylsulfonyl)ethyl)piperidin-4-yl)-1H-indazol-1-yl)pyrimidin-4-yl)azetidin-3-ol]	2
COc1nc(N2CCOCC2)cc(-n2ncc3cc(C)c(C4CCN(CCO)CC4F)cc32)n1 (single isomer, unassigned) [Example E1, 2-(3-fluoro-4-(1-(2-methoxy-6-morpholinopyrimidin-4-yl)-5-methyl-1H-indazol-6-yl)piperidin-1-yl)ethanol]	5.01
Cc1nc(N2CCO[C@@H](CO)C2)cc(-n2ncc3cc(C)c(C4CCN(CC(C)O)CC4F)cc32)n1 (single isomer, unassigned) [Example E29]	6.31
